Measurements from patent US20050175599A1, “Process for producing substance” (Kyowa Hakko Kogyo Co., Ltd., priority 2001, published 2005).

Test system: transformant cell line 503LCA500D (derived from CHO/DG44) producing chimeric anti-CCR4 antibody
Test: Fed-batch culture of antibody-producing cells with Q10-containing feed medium (Example 3)
Format: cell-based, Chinese hamster
Details: for cumulative number of cells on the completion of culturing: Q10-free culture 3.94×10^7; for relative specific antibody production rate: Q10-free culture = 100%
Description: Lens culinaris agglutinin (hereinafter abbreviated as LCA) resistant cell line CHO-LCA, which is derived from Chinese hamster ovary cell line CHO/DG44, was prepared by the method described in WO 02/31140, and chimeric anti-CCR4 antibody expression vector pCANTEX 2160 (WO 01/64754) was transfected into this cell line. Then, amethotrexate (MTX)-resistant cell was selected for gene amplification to obtain transformant cell line 503LCA500D (FERM BP-8239) producing chimeric anti-CCR4 antibody. The following fed-batch culture was performed using this cell line 503LCA500D. 503LCA500D was deposited as FERM BP-8239 in International Patent Organism Depositary, National Institute of Advanced Industrial Science and Technology (AIST Tsukuba Central 6, 1-1-1 Higashi, Tsukuba, Ibaraki, Japan) as of Nov. 20, 2002.
The cells were inoculated in a 250-mL conical flask containing 50 mL of a serum-free medium. (EX-CELL 302 medium, manufactured by JRH Biosciences) to a cell density of 3×10^5 cells/mL, followed by spinner culture at 100 rpm at 37° C.
In Q10-added cultures, 0.5 mL or 1 mL of a health drink SANOMIT (manufactured by MSE Pharmazeutica GmbH) comprising Q10, water, glycerin, ethanol and lecithin was added to 20 mL of an animal-protein-material-free feed medium comprising amino acids (0.22 g/L L-alanine, 0.74 g/L L-arginine monohydrochloride, 0.22 g/LL-asparagine (anhydrous), 0.26 g/L L-aspartic acid, 0.8 g/L L-cystine dihydrochloride, 0.66 g/L L-glutamic acid, 7.34 g/L L-glutamine, 0.26 g/L glycine, 0.37 g/L L-histidine monohydrochloride dihydrate, 0.92 g/L L-isoleucine, 0.92 g/L L-leucine, 1.29 g/L L-lysine monohydrochloride, 0.26 g/L L-methionine, 0.58 g/L L-phenylalanine, 0.35 g/L L-proline, 0.37 g/L L-serine, 0.84 g/L L-threonine, 0.14 g/L L-tryptophan, 0.92 g/L L-tyrosine disodium dihydrate, and 0.83 g/LL-valine), vitamins (0.11 mg/L d-biotin, 0.035 g/L calcium D-pantothenate, 0.035 g/L choline chloride, 0.035 g/L folic acid, 0.063 g/L myo-inositol, 0.035 g/L niacin amide, 0.035 g/L pyridoxal hydrochloride, 0.0035 g/L riboflavin, 0.035 g/L thiamine hydrochloride, and 0.00011 mg/L cyanocobalamine), 0.0251 g/L ethanolamine, 0.314 g/L insulin, 8 g/L soybean hydrolysate HY-SOY (manufactured by Quest International), 0.05 g/L ethylenediaminetetraacetic acid ferric sodium salt (manufactured by Sigma-Aldrich Co.), and 2 mL cholesterol lipid concentrate (1,000×aqueous solution, manufactured by Invitrogen Corp.). The concentrations of Q10 in the feed media after addition of SANOMIT were 1,563 μmol/L and 3,125 μmol/L respectively. […]

Compound: COC1=C(OC)C(=O)C(C/C=C(\C)CC/C=C(\C)CC/C=C(\C)CC/C=C(\C)CC/C=C(\C)CC/C=C(\C)CC/C=C(\C)CC/C=C(\C)CC/C=C(\C)CCC=C(C)C)=C(C)C1=O [Q10]
- cumulative number of cells on the completion of culturing (Q10-added culture 1, 121 to 393 μmol/L Q10 in the medium (SANOMIT in feed), fed-batch 13 days): 3.64×10^7 cells/mL×days
- relative specific antibody production rate (Q10-added culture 1, 121 to 393 μmol/L Q10 in the medium, fed-batch 13 days): 128.8%
- cumulative number of cells on the completion of culturing (Q10-added culture 2, 242 to 786 μmol/L Q10 in the medium (SANOMIT in feed), fed-batch 15 days): 2.00×10^7 cells/mL×days
- relative specific antibody production rate (Q10-added culture 2, 242 to 786 μmol/L Q10 in the medium, fed-batch 15 days): 149.1%
